Test results taken from patent US7498447B2, “Therapeutic compounds” (Allergan, Inc., priority 2006, dated 2009).

Tests used:
EP2 [1] = target: T1, EP2 (Homo sapiens, UniProt P43116); experiment: EP2 flipr; type: cell-based
Source text: (§1) U.S. patent application Ser. No. 11/553,143, filed on Oct. 26, 2006, incorporated by reference herein, describes the methods used to obtain the in vitro data in the tables below.

EP2 [2] = target: T1, EP2; experiment: EP2 cAMP; type: cell-based
Source text: as §1

EP2 [3] = target: T1, EP2; experiment: EP2 binding (Ki)
Source text: as §1

EP4 [4] = target: T2, EP4 (Homo sapiens, UniProt P35408); experiment: EP4 binding (KI)
Source text: as §1

EP4 [5] = target: T2, EP4; experiment: EP4 flipr; type: cell-based
Source text: as §1

T2 sequence (P35408 whole entry): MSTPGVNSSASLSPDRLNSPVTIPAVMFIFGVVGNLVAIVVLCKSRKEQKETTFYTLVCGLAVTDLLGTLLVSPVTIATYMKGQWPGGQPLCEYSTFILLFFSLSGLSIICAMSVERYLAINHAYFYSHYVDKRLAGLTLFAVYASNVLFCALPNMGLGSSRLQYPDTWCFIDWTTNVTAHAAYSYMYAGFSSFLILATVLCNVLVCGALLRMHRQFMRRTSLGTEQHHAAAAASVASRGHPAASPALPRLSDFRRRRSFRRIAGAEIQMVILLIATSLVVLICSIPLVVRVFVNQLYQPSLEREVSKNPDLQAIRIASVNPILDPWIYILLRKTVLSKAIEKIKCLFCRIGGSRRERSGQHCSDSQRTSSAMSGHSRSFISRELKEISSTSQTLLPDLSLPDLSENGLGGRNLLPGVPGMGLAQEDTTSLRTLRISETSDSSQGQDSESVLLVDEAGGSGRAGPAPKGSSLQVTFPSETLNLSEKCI
T1 sequence (P43116 whole entry): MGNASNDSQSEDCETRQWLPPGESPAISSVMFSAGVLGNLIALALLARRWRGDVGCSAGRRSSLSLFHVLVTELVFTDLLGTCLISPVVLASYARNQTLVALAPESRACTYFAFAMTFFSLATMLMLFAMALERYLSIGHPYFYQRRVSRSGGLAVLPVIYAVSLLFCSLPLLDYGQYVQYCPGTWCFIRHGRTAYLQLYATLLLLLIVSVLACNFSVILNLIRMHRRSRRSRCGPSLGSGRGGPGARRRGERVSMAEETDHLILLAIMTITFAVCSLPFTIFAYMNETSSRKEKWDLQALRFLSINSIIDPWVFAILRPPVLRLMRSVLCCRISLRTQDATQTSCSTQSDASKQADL

Row | EC50 (EP2 [1]) [µM] | EC50 (EP2 [2]) [µM] | Ki (EP2 [3]) [µM] | Ki (EP4 [4]) [µM] | EC50 (EP4 [5]) [µM] | Structure (SMILES)
1 | 2.18 | 0.339 | 1.84 | > 10 | – | CCCCCC(O)c1ccc(N2CC[C@@H](Cl)[C@@H]2COCc2ccc(C(=O)O)s2)cc1 (stereo partly drawn) [5-((((2S,3R)-3-chloro-1-(4-(1-hydroxyhexyl)phenyl)pyrrolidin-2-yl)methoxy)methyl)thiophene-2-carboxylic acid]
2 | 8.42 | 0.327 | 3.01 | 1.49 | > 10 | CCCC/C=C/c1ccc(N2CC[C@@H](Cl)[C@@H]2COCc2ccc(C(=O)O)s2)cc1 [5-((((2S,3R)-3-chloro-1-(4-((E)-hex-1-enyl)phenyl)pyrrolidin-2-yl)methoxy)methyl)thiophene-2-carboxylic acid]
3 | 3.81 | 0.017 | 0.085 | 1.02 | > 10 | CCCCCC(=O)c1ccc(N2CC[C@@H](Cl)[C@@H]2COCc2ccc(C(=O)O)s2)cc1 [5-((((2S,3R)-3-chloro-1-(4-hexanoylphenyl)pyrrolidin-2-yl)methoxy)methyl)thiophene-2-carboxylic acid]
